Measurements as given in ChEMBL document CHEMBL3817770, “Design and synthesis of 5-aminolaevulinic acid/3-hydroxypyridinone conjugates for photodynamic therapy: enhancement of protoporphyrin IX production and photo-toxicity in tumor cells” (Medchemcomm, 2016).
Active and inactive are the calls of the source. No cut-off for these calls is given here.

Columns and labels:
[1] = Phototoxicity in human BPH1 cells assessed as cell survival at 200 uM incubated for 4 hrs followed by irradiation with blue light for 5 mins by MTT assay; assay type: cell-based, BPH-1; settings: BPH1 cells, read-out: Survival
[2] = system: LNCaP; test: Phototoxicity in human LNCAP cells assessed as cell survival at 100 uM incubated for 4 hrs followed by irradiation with blue light for 5 mins in presence of CP94 by MTT assay; assay type: functional; settings: light or radiation study, read-out: Survival
[3] = system: LNCaP; test: Dark toxicity in human LNCAP cells at 200 uM after 4 hrs by MTT assay; assay type: cell-based
[4] = system: MDA-MB-435; test: Phototoxicity in human MDA-MB-435 cells assessed as cell survival incubated for 4 hrs followed by irradiation with blue light for 5 mins in presence of CP94 by MTT assay; assay type: functional, cell-based
[5] = system: KB; test: Phototoxicity in human KB cells assessed as cell survival at 200 uM incubated for 4 hrs followed by irradiation with blue light for 5 mins by MTT assay; assay type: functional; settings: light or radiation study, read-out: Survival
[6] = system: HeLa; test: Phototoxicity in human HeLa cells assessed as cell survival at 250 uM incubated for 4 hrs followed by irradiation with blue light for 5 mins in presence of CP94 by MTT assay; assay type: functional; settings: light or radiation study, read-out: Survival
[7] = system: MDA-MB-435; test: Phototoxicity in human MDA-MB-435 cells assessed as cell survival at 250 uM incubated for 4 hrs followed by irradiation with blue light for 5 mins by MTT assay; assay type: functional; settings: MDA-MB-435, light or radiation study, read-out: Survival
[8] = system: A549; test: Dark toxicity in human A549 cells at 200 uM after 4 hrs by MTT assay; assay type: cell-based; settings: a549, 4 h
[9] = system: A549; test: Increase in protoporphyrin 9 levels in human A549 cells at 200 uM after 6 hrs in presence of CP94 by fluorescence spectrometer plate reader method; assay type: functional
[10] = system: MDA-MB-435; test: Phototoxicity in human MDA-MB-435 cells assessed as cell survival at 250 uM incubated for 4 hrs followed by irradiation with blue light for 5 mins in presence of CP94 by MTT assay; assay type: functional; settings: MDA-MB-435, light or radiation study, read-out: Survival
[11] = system: MDA-MB-435; test: Increase in protoporphyrin 9 levels in human MDA-MB-435 cells at 50 to 250 uM after 5 hrs in presence of CP94 by fluorescence spectrometer plate reader method; assay type: functional, cell-based
[12] = system: A549; test: Phototoxicity in human A549 cells assessed as cell survival at 100 uM incubated for 4 hrs followed by irradiation with blue light for 5 mins in presence of CP94 by MTT assay; assay type: functional; settings: A549, light or radiation study, read-out: Survival
[13] = system: A549; test: Increase in protoporphyrin 9 levels in human A549 cells at 200 uM after 24 hrs in presence of CP94 by fluorescence spectrometer plate reader method; assay type: functional
[14] = Dark toxicity in human BPH1 cells at 200 uM after 4 hrs by MTT assay; assay type: cell-based; settings: bph-1, 4 h
[15] = system: A549; test: Increase in protoporphyrin 9 levels in human A549 cells at 200 uM after 3 hrs in presence of CP94 by fluorescence spectrometer plate reader method; assay type: functional
[16] = system: HeLa; test: Phototoxicity in human HeLa cells assessed as cell survival incubated for 4 hrs followed by irradiation with blue light for 5 mins in presence of CP94 by MTT assay; assay type: functional, cell-based
[17] = Phototoxicity in human BPH1 cells assessed as cell survival at 100 uM incubated for 4 hrs followed by irradiation with blue light for 5 mins in presence of CP94 by MTT assay; assay type: cell-based, BPH-1; settings: read-out: Survival
[18] = system: A549; test: Phototoxicity in human A549 cells assessed as cell survival at 200 uM incubated for 4 hrs followed by irradiation with blue light for 5 mins by MTT assay; assay type: functional; settings: A549, light or radiation study, read-out: Survival
[19] = system: MCF7; test: Phototoxicity in human MCF7 cells assessed as cell survival at 100 uM incubated for 4 hrs followed by irradiation with blue light for 5 mins in presence of CP94 by MTT assay; assay type: functional; settings: MCF7, light or radiation study, read-out: Survival
[20] = system: LNCaP; test: Increase in protoporphyrin 9 levels in human LNCAP cells at 200 uM after 3 hrs in presence of CP94 by fluorescence spectrometer plate reader method; assay type: functional
[21] = system: LNCaP; test: Increase in protoporphyrin 9 levels in human LNCAP cells at 200 uM after 6 hrs in presence of CP94 by fluorescence spectrometer plate reader method; assay type: functional
[22] = system: LNCaP; test: Phototoxicity in human LNCAP cells assessed as cell survival at 200 uM incubated for 4 hrs followed by irradiation with blue light for 5 mins by MTT assay; assay type: functional; settings: light or radiation study, read-out: Survival
[23] = system: HeLa; test: Phototoxicity in human HeLa cells assessed as cell survival at 250 uM incubated for 4 hrs followed by irradiation with blue light for 5 mins by MTT assay; assay type: functional; settings: light or radiation study, read-out: Survival
[24] = system: LNCaP; test: Increase in protoporphyrin 9 levels in human LNCAP cells at 200 uM after 24 hrs in presence of CP94 by fluorescence spectrometer plate reader method; assay type: functional
[25] = system: HeLa; test: Increase in protoporphyrin 9 levels in human HeLa cells at 50 to 250 uM after 5 hrs in presence of CP94 by fluorescence spectrometer plate reader method; assay type: functional, cell-based
[26] = system: MCF7; test: Dark toxicity in human MCF7 cells at 200 uM after 4 hrs by MTT assay; assay type: cell-based; settings: mcf7, 4 h
[27] = system: A549; test: Increase in protoporphyrin 9 levels in human A549 cells at 200 uM after 3 hrs by fluorescence spectrometer plate reader method relative to ALA and CP94; assay type: functional
[28] = Phototoxicity in human BPH1 cells assessed as cell survival at 100 uM incubated for 4 hrs followed by irradiation with blue light for 5 mins by MTT assay; assay type: cell-based, BPH-1; settings: read-out: Survival
[29] = system: A549; test: Increase in protoporphyrin 9 levels in human A549 cells at 200 uM after 6 hrs by fluorescence spectrometer plate reader method relative to ALA and CP94; assay type: functional
[30] = Increase in protoporphyrin 9 levels in human BPH1 cells at 100 uM after 24 hrs by fluorescence spectrometer plate reader method relative to ALA; assay type: ADME, cell-based; settings: bph-1, 24 h
[31] = system: A549; test: Increase in protoporphyrin 9 levels in human A549 cells at 200 uM after 24 hrs by fluorescence spectrometer plate reader method; assay type: functional
[32] = system: KB; test: Increase in protoporphyrin 9 levels in human KB cells at 100 uM after 24 hrs by fluorescence spectrometer plate reader method relative to ALA; assay type: functional
[33] = system: HeLa; test: Phototoxicity in human HeLa cells assessed as cell survival incubated for 4 hrs followed by irradiation with blue light for 5 mins by MTT assay; assay type: functional, cell-based
[34] = system: HeLa; test: Increase in protoporphyrin 9 levels in human HeLa cells after 5 hrs by fluorescence spectrometer plate reader method; assay type: functional, cell-based
[35] = system: A549; test: Increase in protoporphyrin 9 levels in human A549 cells at 100 uM after 24 hrs by fluorescence spectrometer plate reader method relative to ALA; assay type: functional
[36] = Increase in protoporphyrin 9 levels in human BPH1 cells at 200 uM after 3 to 24 hrs by fluorescence spectrometer plate reader method; assay type: ADME, cell-based; settings: bph-1, 200 µM
[37] = system: A549; test: Increase in protoporphyrin 9 levels in human A549 cells at 200 uM after 6 hrs by fluorescence spectrometer plate reader method; assay type: functional
[38] = system: A549; test: Phototoxicity in human A549 cells assessed as cell survival at 100 uM incubated for 4 hrs followed by irradiation with blue light for 5 mins by MTT assay; assay type: functional; settings: A549, light or radiation study, read-out: Survival
[39] = system: LNCaP; test: Increase in protoporphyrin 9 levels in human LNCAP cells at 200 uM after 6 hrs by fluorescence spectrometer plate reader method; assay type: functional
[40] = system: A549; test: Increase in protoporphyrin 9 levels in human A549 cells at 200 uM after 3 hrs by fluorescence spectrometer plate reader method; assay type: functional
[41] = system: LNCaP; test: Increase in protoporphyrin 9 levels in human LNCAP cells at 200 uM after 24 hrs by fluorescence spectrometer plate reader method; assay type: functional
[42] = system: LNCaP; test: Increase in protoporphyrin 9 levels in human LNCAP cells at 100 uM after 24 hrs by fluorescence spectrometer plate reader method relative to ALA; assay type: functional
[43] = system: MDA-MB-435; test: Phototoxicity in human MDA-MB-435 cells assessed as cell survival incubated for 4 hrs followed by irradiation with blue light for 5 mins by MTT assay; assay type: functional, cell-based
[44] = system: MCF7; test: Phototoxicity in human MCF7 cells assessed as cell survival at 100 uM incubated for 4 hrs followed by irradiation with blue light for 5 mins by MTT assay; assay type: functional; settings: MCF7, light or radiation study, read-out: Survival
[45] = system: A549; test: Increase in protoporphyrin 9 levels in human A549 cells at 200 uM after 24 hrs by fluorescence spectrometer plate reader method relative to ALA and CP94; assay type: functional
[46] = system: MDA-MB-435; test: Increase in protoporphyrin 9 levels in human MDA-MB-435 cells after 5 hrs by fluorescence spectrometer plate reader method; assay type: functional, cell-based
[47] = system: LNCaP; test: Phototoxicity in human LNCAP cells assessed as cell survival at 100 uM incubated for 4 hrs followed by irradiation with blue light for 5 mins by MTT assay; assay type: functional; settings: light or radiation study, read-out: Survival
[48] = system: KB; test: Increase in protoporphyrin 9 levels in human KB cells at 200 uM after 3 to 24 hrs by fluorescence spectrometer plate reader method; assay type: functional, cell-based
[49] = system: LNCaP; test: Increase in protoporphyrin 9 levels in human LNCAP cells at 200 uM after 3 hrs by fluorescence spectrometer plate reader method; assay type: functional

SMILES: NCC(=O)CCC(=O)O [AMINOLEVULINIC ACID]
- viability at 4 h, 200 µM [1]: 70.8%
- viability at 100 µM [2]: 33.1%
- Activity [3]: Non-toxic
- Activity [4]: Dose-dependent effect
- viability at 200 µM [5]: 52.6%
- viability at 250 µM [6]: 26.9%
- viability at 250 µM [7]: 61.4%
- Activity [8]: Non-toxic
- Flu intensity [9]: 42.1 a.u.
- viability at 250 µM [10]: 28.9%
- Activity [11]: Active
- viability at 100 µM [12]: 18.4%
- Flu intensity [13]: 77.8 a.u.
- Activity [14]: Non-toxic
- Flu intensity [15]: 17.7 a.u.
- Activity [16]: Dose-dependent effect
- viability at 4 h, 100 µM [17]: 81.9%
- viability at 200 µM [18]: 54.7%
- viability at 100 µM [19]: 26.7%
- Flu intensity [20]: 17.3 a.u.
- Flu intensity [21]: 31.3 a.u.
- viability at 200 µM [22]: 61.9%
- viability at 250 µM [23]: 58.6%
- Flu intensity [24]: 46 a.u.
- Activity [25]: Active
- Activity [26]: Non-toxic

SMILES: COC(=O)CCC(=O)CNC(=O)[C@H](Cc1ccccc1)NC(=O)c1c(O)c(=O)ccn1C
- Flu intensity [27]: 1.6 a.u.
- viability at 4 h, 100 µM [28]: 75.1%
- viability at 4 h, 200 µM [1]: 12.4%
- Activity [3]: Non-toxic
- Flu intensity [29]: 1.3 a.u.
- fold change (FC) [30]: 1.5
- Flu intensity [31]: 94.6 a.u.
- viability at 200 µM [5]: 7.8%
- viability at 250 µM [7]: 11.1%
- Activity [8]: Non-toxic
- fold change (FC) [32]: 2.9
- Activity [33]: Dose-dependent effect
- Activity [14]: Non-toxic
- Activity [34]: Dose-dependent effect
- fold change (FC) [35]: 3.1
- Activity [36]: Non-toxic
- Flu intensity [37]: 52.9 a.u.
- viability at 100 µM [38]: 14.7%
- viability at 200 µM [18]: 16.3%
- Flu intensity [39]: 47.1 a.u.
- viability at 200 µM [22]: 13.5%
- Flu intensity [40]: 27.7 a.u.
- Flu intensity [41]: 58.4 a.u.
- viability at 250 µM [23]: 15.3%
- fold change (FC) [42]: 4
- Activity [43]: Dose-dependent effect
- viability at 100 µM [44]: 21.1%
- Flu intensity [45]: 1.2 a.u.
- Activity [46]: Dose-dependent effect
- viability at 100 µM [47]: 26.3%
- Activity [48]: Active
- Flu intensity [49]: 25.3 a.u.
- Activity [26]: Non-toxic
